Measurements published in ChEMBL document CHEMBL1201862, “PubChem BioAssay data set” (2004).
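These data come from cells grown in 96-well plates and exposed to compound for 48 hours at five concentrations. GI50: concentration for 50% inhibition of growth.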 Active and inactive are the calls of the source. Cut-off read from the data, not from the text of the source: active = GI50 up to about 1.1 µM and inactive = higher.

What was measured:
Assay in all cases: inhibition of tumour cell growth, NCI panel, 48 h
[1] = tested on: SK-MEL-2
[2] = tested on: SF-295
[3] = tested on: SF-268
[4] = tested on: NCI-H226
[5] = tested on: OVCAR-3
[6] = tested on: T47D
[7] = tested on: OVCAR-8
[8] = tested on: MDA-N
[9] = tested on: SN12C
[10] = tested on: SNB-19
[11] = tested on: TK-10
[12] = tested on: OVCAR-5
[13] = tested on: SNB-75
[14] = tested on: NCI-H23
[15] = tested on: MDA-MB-435
[16] = tested on: ACHN
[17] = tested on: A549
[18] = tested on: Malme-3M
[19] = tested on: HL-60
[20] = tested on: CAKI-1

Measured: GI50

O=C(O)c1nc2nc(Cl)c(Cl)nc2[nH]1
inactive: [1] > 100 µM | [2] > 100 µM | [3] > 100 µM | [4] > 100 µM | [5] > 100 µM | [6] > 100 µM | [7] > 100 µM | [8] > 100 µM | [9] > 100 µM | [10] > 100 µM | [11] > 100 µM | [12] > 100 µM | [13] > 100 µM | [14] > 100 µM | [15] > 100 µM | [16] > 100 µM | [17] > 100 µM | [18] > 100 µM | [19] > 100 µM | [20] > 100 µM

Cc1ccc(NC(c2ccccc2)P(=O)(c2ccccc2)c2ccccc2)cc1 (stereo not given)
inactive: [1] 39.6 µM | [2] 29.9 µM | [3] 71.3 µM | [4] > 100 µM | [5] > 100 µM | [6] > 100 µM | [7] > 100 µM | [8] > 100 µM | [9] > 100 µM | [10] 53.7 µM | [11] > 100 µM | [12] > 100 µM | [13] 13.7 µM | [14] > 100 µM | [15] > 100 µM | [16] 63.7 µM | [17] > 100 µM | [18] > 100 µM | [19] 34 µM | [20] > 100 µM

N#CC(NNC(=O)Cc1ccccc1)c1ccccc1O (stereo not given)
inactive: [1] 30.3 µM | [2] 9.68 µM | [3] 9.04 µM | [4] 17.3 µM | [5] 3.75 µM | [6] 2.62 µM | [7] 12.3 µM | [8] 19.4 µM | [9] 23.3 µM | [10] 21.3 µM | [11] 24.2 µM | [12] 26.9 µM | [13] 21.3 µM | [14] 9.23 µM | [15] 27.7 µM | [16] 6.56 µM | [17] 10.3 µM | [18] 16.3 µM | [19] 3.35 µM | [20] 12.6 µM

O=S(=O)(O)c1ccc2c(/N=N/c3c(O)ccc4ccccc34)cccc2c1
inactive: [1] > 100 µM | [2] > 100 µM | [3] > 100 µM | [4] > 100 µM | [5] 88.9 µM | [6] > 100 µM | [7] > 100 µM | [8] > 100 µM | [9] > 100 µM | [10] > 100 µM | [11] > 100 µM | [12] > 100 µM | [13] > 100 µM | [14] > 100 µM | [15] > 100 µM | [16] > 100 µM | [17] > 100 µM | [18] > 100 µM | [19] > 100 µM | [20] > 100 µM
